Values of other authors as cited in the PKSmart pharmacokinetics tables (Seal et al. 2025).

Columns and labels:
[1] = Lombardo et al. 2013, J Clin Pharmacol 53:178, doi 10.1177/0091270012440282; details: for Vd / clearance: in vivo, iv; for fraction unbound: plasma
[2] = Lombardo, Berellini, Obach 2018, Drug Metab Dispos 46:1466, doi 10.1124/dmd.118.082966; details: human; for Vd / clearance / half-life / MRT: in vivo, iv; for fraction unbound: plasma

Structure (SMILES)	Vd ([1]; dog) [L/kg]	clearance ([1]; dog) [mL/min/kg]	Vd ([1]; monkey) [L/kg]	clearance ([1]; monkey) [mL/min/kg]	Vd ([1]; rat) [L/kg]	clearance ([1]; rat) [mL/min/kg]	fraction unbound ([1]; rat)	Vd [2] [L/kg]	clearance [2] [mL/min/kg]	half-life [2] [h]	MRT [2] [h]	fraction unbound [2]	fraction unbound ([1]; dog)	fraction unbound ([1]; monkey)
CC(C)NCC(O)COc1ccc(COCCOC(C)C)cc1 (centres undefined)	3.5	7.9	3	12	1.4	13	0.85	2.4	3.7	10	–	–	–	–
CCC#CC[C@H](C)[C@H](O)C#C[C@@H]1[C@H]2C/C(=C/COCC(=O)O)C[C@H]2C[C@H]1O	–	–	1.2	14.3	1	49	–	0.08	3.8	1.1	0.35	–	–	–
CCN(CCO)CCCC(C)Nc1ccnc2cc(Cl)ccc12 (centres undefined)	–	–	–	–	14.6	28.2	0.62	700	11	850	1300	0.57	–	–
Nc1ccn([C@@H]2O[C@H](CO)[C@@H](O)C2(F)F)c(=O)n1	1.41	10.8	5.5	177	1	5	0.93	1.5	32	1	0.81	1	0.765	–
Nc1nc(C(=NO)C(=O)NC2C(=O)N3C(C(=O)O)=C(C=C4CCN(CC(F)(F)F)C4=O)CS[C@H]23)cs1 (some centres undefined)	0.18	2.7	0.12	0.77	0.15	0.95	0.025	0.11	0.38	3.8	4.8	0.043	0.16	0.05
Cn1c(=O)c2c(ncn2CC(O)CO)n(C)c1=O (centres undefined)	–	–	–	–	1.04	24.7	–	0.42	4.8	1.7	1.5	–	–	–
O=c1n(CCCN2CCN(c3cccc(Cl)c3)CC2)nc2ccccn12	–	–	–	–	1.76	51.8	0.12	0.52	1.4	7.3	6.2	0.08	–	–
Nc1cc(-c2ccncc2)c[nH]c1=O	1.2	6	–	–	–	–	–	1.3	8.9	2	2.4	0.89	–	–
COc1cccc2c1C(=O)c1c(O)c3c(c(O)c1C2=O)C[C@@](O)(C(=O)CO)C[C@@H]3O[C@H]1C[C@H](N)[C@@H](O)[C@H](C)O1	71.9	–	–	–	0.17	25.9	–	45	20	36	38	–	0.808	–
COc1nc(C)nc(Cl)c1NC1=NCCN1	–	–	–	–	3.2	50.1	–	1.8	11	2.2	2.7	–	–	–
CNC(=O)c1cccc2c(Nc3ccc(NS(C)(=O)=O)cc3OC)c3cccc(C)c3nc12	1	3.7	–	–	2	66	0.011	0.3	2.6	2.4	1.9	0.0011	0.0038	–
CN1CCN(c2c(F)cc3c(=O)c(C(=O)O)cn(CCF)c3c2F)CC1	1.3	1.6	1.2	4	1.3	5.8	0.49	1.6	2.4	8.6	11	–	0.51	0.607
CN/C(=C\[N+](=O)[O-])NCCSCc1ccc(CN(C)C)o1	1.65	–	–	–	2.87	–	1	1.2	–	2.1	2.1	–	–	–
C#C[C@]1(O)CC[C@H]2[C@@H]3CCc4cc(O)ccc4[C@H]3CC[C@@]21C	17	25	7.2	36	5.7	55	0.0088	4.3	7	9.7	11	0.014	–	0.0099
CCS(=O)(=O)CCn1c([N+](=O)[O-])cnc1C	0.89	1.67	–	–	–	–	–	0.59	0.6	13	16	–	–	–
CCN1CCN(C(=O)NC(C(=O)NC2C(=O)N3C(C(=O)O)C(C)(C)S[C@H]23)c2ccccc2)C(=O)C1=O (some centres undefined)	0.24	6.6	0.26	7.2	0.39	17.7	0.61	0.27	–	0.96	1.1	–	0.84	0.95
CC1=NC(=O)[C@](CCN(C(C)C)C(C)C)(c2ccccc2)[C@H]2CCCCN12	1.3	12	1.6	20	4.2	48	0.63	0.58	6.79	1.89	1.58	0.7	0.618	0.656
CN(C)CCc1c[nH]c2ccc(CS(=O)(=O)N3CCCC3)cc12	3.98	28.5	2.61	40	2.7	55.8	0.72	2.2	8.9	3.4	4.2	0.6	0.73	0.699
CC[C@@]1(O)C(=O)OCc2c1cc1n(c2=O)Cc2cc3c(N)cccc3nc2-1	–	–	–	–	5	150	–	2.2	6.5	7	5.6	0.003	–	–
O=P1(N(CCCl)CCCl)NCCCO1 (centres undefined)	0.7	20	–	–	0.67	11.1	–	0.73	1.1	8	11	–	–	–
Cc1ccc(-c2nc3ccc(C)cn3c2CC(=O)N(C)C)cc1	–	–	–	–	1.05	48.7	0.17	0.54	4.3	1.7	2.1	–	–	–
O=NN(CCCl)C(=O)NCCCl	1.1	17.8	0.9	21	–	–	–	1.2	78	0.37	0.26	0.23	–	–
CC[C@H](OC(C)=O)C(C[C@H](C)N(C)C)(c1ccccc1)c1ccccc1	5.9	28	–	–	–	–	–	8.3	5.4	–	26	0.2	–	–
Nc1[nH]c(=O)ncc1F	0.64	2.4	–	–	–	–	–	0.68	2	4.2	5.7	–	–	–
CC(=O)CCCCn1c(=O)c2c(ncn2C)n(C)c1=O	1.01	37	–	–	0.1	7.28	0.76	1.8	39	1.2	0.77	0.51	0.425	–
CC(C)(C)NCC(O)c1cc(O)cc(O)c1 (centres undefined)	–	–	–	–	3.3	60	–	1.5	3.4	15	7.4	–	–	–
NC[C@H]1O[C@H](O[C@H]2[C@H](O)[C@@H](O[C@H]3O[C@H](CO)[C@@H](O)[C@H](N)[C@H]3O)[C@H](N)C[C@@H]2N)[C@H](N)C[C@@H]1O	–	–	–	–	0.68	15.7	–	0.23	1.6	2	2.4	1	–	–
